Reference: ChEMBL document CHEMBL1139203, “Syntheses and antiproliferative evaluation of oxyphenisatin derivatives” (Bioorg Med Chem Lett, 2007)
Values after ≈ are worked out from the molar mass of the structure shown.

How the values were obtained:
[1] = Antiproliferative activity against human MDA231 cells; assay type: functional, cell-based; details: MDA-MB-231
[2] = Antiproliferative activity against human MDA468 cells; assay type: functional, cell-based; details: MDA-MB-468
Cytochrome P450 2D6 = Cytochrome P450 2D6 (Homo sapiens, UniProt P10635); assay: Inhibition of human CYP2D6; assay type: ADME
Serum = assay: Protein binding to human serum; assay type: ADME, cell-free
Cytochrome P450 2C9 = Cytochrome P450 2C9 (Homo sapiens, UniProt P11712); assay: Inhibition of human CYP2C9; assay type: ADME
[3] = Aqueous solubility at pH 7.0; assay type: physicochemical
Cytochrome P450 1A2 = molecular target: T1, Cytochrome P450 1A2 (Homo sapiens, UniProt P05177); assay: Inhibition of human CYP1A2; assay type: ADME
T1 sequence (P05177 whole entry): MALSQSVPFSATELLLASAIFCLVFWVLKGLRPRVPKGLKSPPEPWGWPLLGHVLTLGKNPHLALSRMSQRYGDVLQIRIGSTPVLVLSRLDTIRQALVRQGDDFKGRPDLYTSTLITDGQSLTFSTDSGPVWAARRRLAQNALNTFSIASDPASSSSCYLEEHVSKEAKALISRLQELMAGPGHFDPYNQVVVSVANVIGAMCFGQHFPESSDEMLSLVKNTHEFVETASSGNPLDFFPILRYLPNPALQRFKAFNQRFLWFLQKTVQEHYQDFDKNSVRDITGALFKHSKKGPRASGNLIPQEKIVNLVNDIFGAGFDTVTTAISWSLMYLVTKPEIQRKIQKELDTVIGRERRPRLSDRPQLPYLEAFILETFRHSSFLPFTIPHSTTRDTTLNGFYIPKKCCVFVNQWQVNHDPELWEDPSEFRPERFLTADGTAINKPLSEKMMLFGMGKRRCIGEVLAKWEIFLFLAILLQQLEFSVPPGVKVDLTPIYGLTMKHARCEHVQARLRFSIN

Cytochrome P450 3A4 = Cytochrome P450 3A4 (Homo sapiens, UniProt P08684); assay: Inhibition of human CYP3A4; assay type: ADME
Cytochrome P450 2C19 = Cytochrome P450 2C19 (Homo sapiens, UniProt P33261); assay: Inhibition of human CYP2C19; assay type: ADME
[4] = Permeability across human Caco-2 cell membrane; assay type: ADME, cell-based; details: read-out: permeability

Cytochrome P450 2C19, sequence (P33261 whole entry): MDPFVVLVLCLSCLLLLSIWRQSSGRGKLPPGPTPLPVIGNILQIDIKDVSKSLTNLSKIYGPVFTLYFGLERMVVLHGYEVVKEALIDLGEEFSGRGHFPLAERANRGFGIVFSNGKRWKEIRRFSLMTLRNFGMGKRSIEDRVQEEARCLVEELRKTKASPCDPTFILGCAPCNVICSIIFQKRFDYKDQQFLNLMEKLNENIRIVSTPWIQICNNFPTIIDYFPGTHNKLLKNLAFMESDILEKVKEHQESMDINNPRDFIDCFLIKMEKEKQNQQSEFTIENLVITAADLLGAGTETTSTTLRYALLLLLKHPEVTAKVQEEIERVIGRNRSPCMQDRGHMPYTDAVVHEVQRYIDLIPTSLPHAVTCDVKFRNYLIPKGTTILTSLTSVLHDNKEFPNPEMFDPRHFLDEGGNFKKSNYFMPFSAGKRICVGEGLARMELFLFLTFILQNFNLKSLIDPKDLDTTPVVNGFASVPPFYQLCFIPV
Cytochrome P450 2D6, sequence (P10635 whole entry): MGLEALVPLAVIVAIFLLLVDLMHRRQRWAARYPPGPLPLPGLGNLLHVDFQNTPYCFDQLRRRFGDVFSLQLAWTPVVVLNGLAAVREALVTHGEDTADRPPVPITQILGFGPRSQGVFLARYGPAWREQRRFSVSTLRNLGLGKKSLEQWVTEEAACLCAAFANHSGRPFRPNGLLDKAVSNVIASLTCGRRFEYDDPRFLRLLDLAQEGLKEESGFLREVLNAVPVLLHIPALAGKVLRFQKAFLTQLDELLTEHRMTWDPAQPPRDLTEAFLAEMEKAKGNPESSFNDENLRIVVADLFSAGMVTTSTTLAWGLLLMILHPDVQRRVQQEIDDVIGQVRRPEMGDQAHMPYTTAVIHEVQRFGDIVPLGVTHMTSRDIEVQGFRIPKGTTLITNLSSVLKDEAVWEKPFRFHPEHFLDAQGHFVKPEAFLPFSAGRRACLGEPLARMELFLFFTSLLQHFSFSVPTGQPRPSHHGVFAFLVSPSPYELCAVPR
Cytochrome P450 3A4, sequence (P08684 whole entry): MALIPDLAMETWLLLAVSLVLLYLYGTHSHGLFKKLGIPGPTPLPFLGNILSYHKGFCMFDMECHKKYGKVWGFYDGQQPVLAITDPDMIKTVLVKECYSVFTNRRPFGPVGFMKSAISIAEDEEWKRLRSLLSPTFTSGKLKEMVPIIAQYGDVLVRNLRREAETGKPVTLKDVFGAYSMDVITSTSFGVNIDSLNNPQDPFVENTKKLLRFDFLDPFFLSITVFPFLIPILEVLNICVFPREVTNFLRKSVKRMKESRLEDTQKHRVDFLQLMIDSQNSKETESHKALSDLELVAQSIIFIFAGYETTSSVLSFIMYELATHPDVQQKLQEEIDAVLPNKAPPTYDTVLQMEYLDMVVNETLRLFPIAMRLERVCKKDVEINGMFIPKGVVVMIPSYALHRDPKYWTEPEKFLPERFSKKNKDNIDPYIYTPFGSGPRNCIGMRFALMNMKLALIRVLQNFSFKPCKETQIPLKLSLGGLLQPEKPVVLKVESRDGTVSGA
Cytochrome P450 2C9, sequence (P11712 whole entry): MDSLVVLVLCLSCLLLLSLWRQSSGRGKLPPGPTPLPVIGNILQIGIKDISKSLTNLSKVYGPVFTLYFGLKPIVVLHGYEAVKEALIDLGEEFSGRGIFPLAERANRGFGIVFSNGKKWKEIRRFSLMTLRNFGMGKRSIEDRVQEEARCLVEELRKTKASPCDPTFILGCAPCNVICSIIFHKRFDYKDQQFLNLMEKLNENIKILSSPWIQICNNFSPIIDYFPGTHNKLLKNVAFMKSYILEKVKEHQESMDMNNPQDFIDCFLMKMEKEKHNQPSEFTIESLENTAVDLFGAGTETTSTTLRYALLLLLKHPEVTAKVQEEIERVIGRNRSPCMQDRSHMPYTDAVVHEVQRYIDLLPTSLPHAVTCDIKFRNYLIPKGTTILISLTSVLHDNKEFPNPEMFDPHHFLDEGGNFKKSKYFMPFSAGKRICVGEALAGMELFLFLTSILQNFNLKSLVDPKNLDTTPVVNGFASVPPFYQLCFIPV

Compound	IC50 [1] [nM]	IC50 [2] [nM]	further results
O=C(O)c1cccc2c1NC(=O)C2(c1ccc(O)cc1)c1ccc(O)cc1	> 3000	> 3000	–
Cc1cccc2c1NC(=O)C2(c1ccc(O)cc1)c1ccc(O)cc1	> 3000	27	–
O=C1Nc2c(ccc(F)c2F)C1(c1ccc(O)cc1)c1ccc(O)cc1	> 3000	3	Activity (Cytochrome P450 2D6): > 10 µM; Activity (Serum): 98%; Activity (Cytochrome P450 2C9): 1 µM; solubility [3]: 230 µg/mL (≈ 651 µM); Activity (Cytochrome P450 1A2): > 10 µM; Activity (Cytochrome P450 3A4): > 10 µM; Activity (Cytochrome P450 2C19): 1 µM; Papp [4]: 4.31 ×10⁻⁶ cm/s
COc1ccc(C2(c3ccc(OC)cc3)C(=O)Nc3ccccc32)cc1	> 3000	1800	–
O=C1Nc2ccccc2C1(c1ccc(O)cc1)c1ccc(O)cc1 [OXYPHENISATINE]	> 3000	112	–
O=C1Nc2c(ccc3c2CCCCC3)C1(c1ccc(O)cc1)c1ccc(O)cc1	> 3000	55	–
O=C1Nc2c(C(F)(F)F)cccc2C1(c1ccc(O)cc1)c1ccc(O)cc1	–	–	Activity (Cytochrome P450 2D6): > 10 µM; Activity (Cytochrome P450 2C9): 1 µM; solubility [3]: 640 µg/mL (≈ 1660 µM); Activity (Cytochrome P450 1A2): > 10 µM; Activity (Cytochrome P450 3A4): > 10 µM; Activity (Cytochrome P450 2C19): 1 µM; Papp [4]: 1.96 ×10⁻⁶ cm/s
O=C1Nc2c(I)cccc2C1(c1ccc(O)cc1)c1ccc(O)cc1	> 3000	62	–
N#Cc1cccc2c1NC(=O)C2(c1ccc(O)cc1)c1ccc(O)cc1	> 3000	57	–
